Reference: patent US20250059166A1, “PIPERIDINYLPYRIDINYLCARBONITRILE DERIVATIVES AS INHIBITORS OF GLUTAMINYL-PEPTIDE CYCLOTRANSFERASE AND GLUTAMINYL-PEPTIDE CYCLOTRANSFERASE LIKE PROTEIN” (Boehringer Ingelheim International GmbH, priority 2023, published 2025)

Tests used:
[1] = Assay C: permeability in CACO-2 cells; format: in vitro ADME; conditions: human, pH 7.2, compounds of the invention; for efflux ratio at 2 h: Caco-2, permeability B-A / permeability A-B; for Papp A→B at 2 h: Caco-2, apical to basolateral
Experimental: Caco-2 cells (1-2×10^5 cells/1 cm^2 area) are seeded on filter inserts (Costar transwell polycarbonate or PET filters, 0.4 μm pore size) and cultured (DMEM) for 10 to 25 days. Compounds are dissolved in appropriate solvent (like DMSO, 1-20 mM stock solutions). […] The transport solution (TL) is applied to the apical or basolateral donor side for measuring A-B or B-A permeability (3 filter replicates), respectively. Samples are collected at the start and end of experiment from the donor and at various time intervals for up to 2 hours also from the receiver side for concentration measurement by HPLC-MS/MS or scintillation counting. Sampled receiver volumes are replaced with fresh receiver solution.
Efflux ratio(ER)=permeabilityB−A/permeabilityA−B

[2] = biological target: T1, QPCT (Homo sapiens, UniProt Q16769); assay: Assay A: biochemical QPCT activity assay (MALDI-TOF MS, CD47 peptide substrate); conditions: compounds of the invention; 0.5 nM enzyme, 20 μM CD47 peptide substrate; read-out: Inhibition of QPCT: IC50
T1 construct: purchased Origine (so in the source)
Experimental: (§1) QPCT or QPCTL dependent conversion of N-terminal glutamine to pyroglutamate of CD47 was monitored via MALDI-TOF MS. Test compounds were dissolved in 100% DMSO and serially diluted into clear 1,536-well microtiter plates. Enzymatic reactions were set up in assay buffer containing 20 mM Tris pH 7.5, 0.1 mM TCEP, 0.01% BSA, and 0.001% Tween20. […] The plates were incubated for 10 min in a humidified incubator at 24° C. Subsequently, 2.5 μL of CD47 peptide substrate surrogate (^19[…]^33) was added to each well (final concentration: 10 μM for QPCTL/20 μM for QPCT). The plates were mixed for 30 sec at 1,000 rpm and subsequently incubated for 40 min in a humidified incubator at 24° C. […] The plates were sealed with an adhesive foil, mixed for 30 s at 1,000 rpm and stored at room temperature until preparation of the MALDI target plates. […] QPCT or QPCTL activity was monitored by calculating the ratio between product and internal standard signals followed by normalization to high (100% activity) and low (0% activity) controls. Determination of compound potencies was obtained by fitting the dose-response data to a four-parameter logistical equation.

[3] = tested on: SIRPα signalling induced by A549 cells; assay: Assay B: SIRPα signalling assay using A549 cells; format: cell-based; conditions: Homo sapiens; compounds of the invention; A549 cells 48 h, Jurkat PathHunter SIRPαV1 reporter cells 5 h; read-out: Inhibition of SIRPα signalling induced by A549 cells: IC50
Experimental: (§2) Two cell types are independently used: the Raji cell line (lymphoblast-like human cell line derived from B lymphocytes from a Burkitt's lymphoma patient in 1963) and A549 cells (adenocarcinoma human alveolar basal epithelial cells).
(§3) Test compounds were dissolved in 100% DMSO and serially diluted into a white 384-well microtiter cell culture plate (PerkinElmer #60076780 in case of Raji assay; PDL-coated plates Greiner #781945 in case of A549 assay). 5000 Raji cells (ATCC #CC86) or 5000 A549 cells (ATCC #CCL-185) in Assay Complete Cell Plating reagent 30 (DiscoverX 93-0563R30B) were added per well. The assay plate was incubated for 48 h at 37° C., 95% humidity and 5% CO2. 15000 reporter cells (Jurkat PathHunter SIRPαV1, DiscoverX #93-1135C19) were added to each well, and the plate was incubated for 5 h at 37° C., 95% humidity and 5% CO2. Bioassay reagent 1 of the PathHunter Bioassay detection kit (DiscoverX 93-0001) was added to each well of the plate using a multichannel pipette followed by a 15 min incubation at room temperature. Afterwards bioassay reagent 2 was added followed by 60 min incubation at room temperature (incubation in the dark).
(§4) The analysis of the data was performed using the luminescence signal generated by beta-galactosidase in the PathHunter reporter cell line. The luminescence measurement was done using a Pherastar Multi-Mode Reader. Dose-response curves & IC50 data were calculated with 4-parameter sigmoidal dose response formula.

[4] = tested on: SIRPα signalling induced by Raji cells; assay: Assay B: SIRPα signalling assay using Raji cells; format: cell-based; conditions: Homo sapiens; compounds of the invention; Raji cells 48 h, Jurkat PathHunter SIRPαV1 reporter cells 5 h; read-out: Inhibition of SIRPα signalling induced by Raji cells: IC50
Experimental: as §2, §3, §4

[5] = biological target: T2, QPCTL (Homo sapiens, UniProt Q9NXS2); assay: Assay A: biochemical QPCTL activity assay (MALDI-TOF MS, CD47 peptide substrate); conditions: compounds of the invention; 0.5 nM enzyme, 10 μM CD47 peptide substrate; read-out: Inhibition of QPCTL: IC50
T2 construct: made in house
Experimental: as §1

T1 sequence (Q16769 29-361): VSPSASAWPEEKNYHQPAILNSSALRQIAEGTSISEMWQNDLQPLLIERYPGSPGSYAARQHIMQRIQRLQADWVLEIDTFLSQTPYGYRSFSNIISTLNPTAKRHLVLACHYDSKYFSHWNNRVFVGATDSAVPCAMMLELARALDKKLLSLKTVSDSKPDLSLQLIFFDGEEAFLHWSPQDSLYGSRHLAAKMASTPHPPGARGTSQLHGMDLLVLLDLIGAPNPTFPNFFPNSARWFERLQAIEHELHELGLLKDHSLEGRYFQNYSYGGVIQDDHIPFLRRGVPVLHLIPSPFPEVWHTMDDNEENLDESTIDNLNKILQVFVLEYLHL
T2 sequence (Q9NXS2 whole entry): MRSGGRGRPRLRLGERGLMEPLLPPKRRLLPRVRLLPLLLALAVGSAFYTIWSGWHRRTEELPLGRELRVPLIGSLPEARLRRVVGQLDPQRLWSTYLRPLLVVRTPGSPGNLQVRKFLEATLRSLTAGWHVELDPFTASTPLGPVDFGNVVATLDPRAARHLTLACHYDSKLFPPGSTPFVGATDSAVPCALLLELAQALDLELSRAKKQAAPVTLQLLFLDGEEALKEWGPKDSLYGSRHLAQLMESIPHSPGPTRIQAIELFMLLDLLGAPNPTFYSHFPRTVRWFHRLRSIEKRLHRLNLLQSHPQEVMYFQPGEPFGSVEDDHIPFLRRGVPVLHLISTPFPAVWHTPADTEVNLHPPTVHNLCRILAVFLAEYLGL

| Compound | efflux ratio at 2 h [1] | Papp A→B at 2 h [1] [×10⁻⁶ cm/s] | IC50 [2] [nM] | IC50 [3] [nM] | IC50 [4] [nM] | IC50 [5] [nM] |
| --- | --- | --- | --- | --- | --- | --- |
| Cn1cnnc1C1(F)CCN(c2c(-c3cnc4nn(C(C)(C)C)cc4c3)ncc(Cl)c2C#N)CC1 [Example 38] | 10.9 | 6.6 | < 1 | 6 | 21 | 1 |
| Cn1cnnc1C1CCN(c2c(C#N)cc(C(F)(F)F)nc2-c2cnc3nn(C(C)(C)C)c(C(F)(F)F)c3c2)CC1 [Example 13] | 5.7 | 3.7 | 16 | 70 | 54 | 8 |
| Cn1cnnc1C1(F)CCN(c2c(C#N)cc(C3CC3)nc2-c2ccc(F)nc2)CC1 [Example 31] | 1.4 | 62 | 4 | 41 | 87 | 2 |
| Cn1cnnc1C1(F)CCN(c2c(C#N)cc(C(F)(F)F)nc2-c2cnc3nn(C(C)(C)C)nc3c2)CC1 [Example 8] | 2.6 | 31 | 4 | 29 | 67 | 5 |
| CC(C)n1nc2ncc(-c3nc(C(F)(F)F)cc(C#N)c3N3CCC(F)(c4nncn4C)CC3)cc2c1F [Example 7] | 11.9 | 5.8 | 2 | 39 | 26 | 2 |
| Cn1cnnc1C1(F)CCN(c2c(C#N)cc(C(F)(F)F)nc2-c2cnc(F)cc2Cl)CC1 [Example 10] | 1.2 | 58 | 27 | 201 | 352 | 10 |
| Cn1cnnc1C1(F)CCN(c2c(C#N)cc(C3CC3)nc2-c2cnc3nn(C(C)(C)C)c(F)c3c2)CC1 [Example 29] | 2.7 | 29 | 1 | 45 | 17 | 1 |
| Cc1cnc(-c2ccc(F)nc2)c(N2CCC(F)(c3nncn3C)CC2)c1C#N [Example 41] | 2.6 | 28 | 2 | 16 | 71 | 1 |
| Cn1cnnc1C1(F)CCN(c2c(C#N)ccnc2-c2cnc3nn(C(C)(C)C)c(Cl)c3c2)CC1 [Example 14] | 6.9 | 12 | < 1 | 12 | 21 | 1 |
| Cn1cnnc1C1(F)CCN(c2c(C#N)cc(Cl)nc2-c2cnc3nn(C(C)(C)C)cc3c2)CC1 [Example 36] | 13.3 | 5.8 | < 1 | 13 | 9 | 1 |
| Cn1cnnc1C1(F)CCN(c2c(C#N)cc(C(F)(F)F)nc2-c2cnc3nn(C(F)(F)F)cc3c2)CC1 [Example 5] | 8.2 | 6.1 | 4 | 67 | 41 | 2 |
| Cn1cnnc1C1(F)CCN(c2c(-c3ccc(F)nc3)ncc(C(F)(F)F)c2C#N)CC1 [Example 40] | 2.8 | 18 | 5 | 115 | 258 | 4 |
| Cc1cc(C#N)c(N2CCC(F)(c3nncn3C)CC2)c(-c2cnc3nn(C(C)(C)C)c(F)c3c2)n1 [Example 25] | 9.9 | 7.6 | 1 | 7 | 9 | 1 |
| Cn1cnnc1C1(F)CCN(c2c(C#N)ccnc2-c2cnc3nn(C(C)(C)C)c(C(F)(F)F)c3c2)CC1 [Example 15] | 1.6 | 35 | 3 | 66 | 69 | 4 |
| Cn1cnnc1C1(F)CCN(c2c(C#N)cc(C(F)(F)F)nc2-c2cnc3nc(C(F)(F)F)nn3c2)CC1 [Example 12] | 6.9 | 4.9 | 29 | 599 | 860 | 24 |
| Cc1cc(F)ncc1-c1nccc(C#N)c1N1CCC(F)(c2nncn2C)CC1 [Example 21] | 2.4 | 18 | 6 | 115 | 187 | 1 |
| Cn1cnnc1C1(F)CCN(c2c(C#N)cc(C(F)(F)F)nc2-c2cnc3nn(C(C)(C)C)c(Cl)c3c2)CC1 [Example 3] | 1 | 47 | 1 | 28 | 14 | 1 |
| Cn1cnnc1C1(F)CCN(c2c(C#N)cc(C(F)(F)F)nc2-c2cnc3nn(C(C)(C)C)c(F)c3c2)CC1 [Example 2] | 4.9 | 16 | 1 | 53 | 17 | 1 |
| Cn1cnnc1C1(F)CCN(c2c(C#N)ccnc2-c2cnc3nn(C(C)(C)C)nc3c2)CC1 [Example 17] | 13.9 | 7.2 | 2 | 40 | 102 | 2 |
| Cn1cnnc1C1(F)CCN(c2c(C#N)cc(Cl)nc2-c2ccc(F)nc2)CC1 [Example 37] | 2.2 | 23 | 6 | 35 | 95 | 2 |
